Literature values, collected in PMC7449217, “The FDA-Approved Drug Nelfinavir Inhibits Lytic Cell-Free but Not Cell-Associated Nonlytic Transmission of Human Adenovirus” (Antimicrobial Agents and Chemotherapy, 2020).
Where two headings read alike, the source gives them in different places.

Experiments:
[1] = tested on: A549 cells; details: cited from earlier work
[2] = tested on: HAdV-C2-dE3B-GFP; parameters: method as in earlier work; details: A549, 1.25 μM compound, normalized to neg. ctr., cited from earlier work

Row | SMILES | Toxic [1] | Normalized mean read-outs: Infected nuclei ([2]; analysis EPFL) | Normalized mean read-outs: Infection index ([2]; analysis EPFL) | Normalized mean read-outs: Nuclei ([2]; analysis EPFL) | Normalized mean read-outs: Plaques ([2]; analysis EPFL) | Normalized mean read-outs: Virus intensity ([2]; analysis EPFL) [AU] | Normalized mean read-outs: Infected nuclei ([2]; analysis UZH) | Normalized mean read-outs: Infection index ([2]; analysis UZH) | Normalized mean read-outs: Nuclei ([2]; analysis UZH) | Normalized mean read-outs: Plaques ([2]; analysis UZH) | Normalized mean read-outs: Virus intensity ([2]; analysis UZH) [AU]
1 | Cc1cn([C@H]2C[C@H](F)[C@@H](CO)O2)c(=O)[nH]c1=O [3'-deoxy-3'-fluorothymidine] | no | 0.12 | 0.17 | 0.70 | 0.00148 | 0.32 | 0.13 | 0.15 | 0.83 | 0.00429 | 0.30
2 | Cc1cc(N)c2ccccc2[n+]1CCCCCCCCCC[n+]1c(C)cc(N)c2ccccc21 [Dequalinium dichloride] | yes | 0.33 | 0.46 | 0.71 | 0.44 | 0.38 | 0.49 | 0.62 | 0.79 | 0.51 | 0.37
3 | Nc1c2ccccc2nc2ccccc12 [Aminacrine] | no | 0.60 | 0.42 | 1.42 | 0.67 | 0.51 | 0.53 | 0.62 | 0.87 | 0.75 | 0.50
4 | CCCCCCCCCCCCCCCC[N+](C)(C)CCN(Cc1ccc(OC)cc1)c1ncccn1 [Thonzonium bromide] | – | 0.45 | 0.56 | 0.81 | 0.56 | 0.50 | 0.54 | 0.63 | 0.84 | 0.54 | 0.49
